# Measurements reported in patent US9364476B2, “Methods of treating a Bruton's Tyrosine Kinase disease or disorder” (Celgene Avilomics Research, Inc., priority 2011, dated 2016).
# Several values for one entry are separate records, joined by “and”; a condition that tells them apart may be missing. Equal values may be shown once. Read-outs that look alike come from different tables or passages of the source.
# What was measured:
# [1] = Plasma API levels by LC-MS-MS (PK); format: in vivo, human
# Protocol: Plasma API levels were assessed by LC-MS-MS.
# [2] = system: Relapsed and/or refractory CLL/SLL; experiment: CLL expansion cohort C: disease response; format: in vivo, human
# Protocol: After completion of observation for DLTs in Example 1, the accumulated safety, PK, and PD data from Example 1 were evaluated to select a preliminary recommended Phase 2 dose for administration to additional subjects enrolled into an independent and non-randomized diagnosis-specific expansion cohorts in the Diagnosis Specific Expansion Cohorts study. • Cohort A: Relapsed and/or refractory diffuse large B-cell lymphoma (DLBCL); • Cohort B: Relapsed and/or refractory indolent and mantle B-cell lymphomas, Waldenstrom's macroglobulinemia, and other B lymphoproliferative disorders of uncertain malignant potential (at least 10 of the 24 enrollment slots will be reserved for subjects with mantle cell lymphoma); and • Cohort C: Relapsed and/or refractory CLL/SLL.
# (§1) 24 subjects were enrolled into the CLL expansion cohort C and were assessed for safety, tolerability, DLT, PK, PD and disease response. Each subject was evaluated prior to enrollment to ensure that minimum hematological criteria were satisfied: […]
# [3] = Solubility of the API; format: physicochemical
# [4] = CLL expansion cohort C: DLT; format: in vivo, human; conditions: 24 subjects, 750 mg po QD
# Protocol: as §1
# [5] = system: relapsed or refractory B-NHL, CLL/SLL, or WM; experiment: Dose escalation study: disease progression and treatment duration; format: in vivo, human
# Protocol: (§2) Intrapatient dose escalation was allowed.
# Subjects with CLL experiencing nodal response with lymphocytosis (which may be related to drug-mediated lymphocyte redistribution) were also eligible for additional treatment. Subjects with WM with increasing serum Immunoglobulin M (“IgM”) levels at the end of the first 28-day cycle were also evaluated for lymphadenopathy/organomegaly and marrow infiltration. Investigators were permitted to use judgment in determining whether to continue these subjects into the second 28-day cycle if there was a discordant response between increased IgM and stable or decreased lymphadenopathy/organomegaly and marrow infiltration.
# [6] = Environmental stability (heat, acid, base); format: physicochemical
# [7] = for maximum tolerated dose (MTD): dose escalation cohorts, besylate
# Description: as §2
# Enrollment for Cohorts 1-5 was not restricted or contingent on the basis of specific B-NHL/CLL/WM diagnosis. […] For example, the physician-investigator may elect to rest a patient due to occurrence or recurrence of adverse events. […] In this context, treatment duration refers to the time a patient is enrolled in the study, inclusive of all rest periods, until treatment is discontinued.
# Six (6) subjects diagnosed with CLL and six (6) patients diagnosed with B-NHL were enrolled in each of Cohorts 6A and 6B. Cohorts 6A and 6B were enrolled concurrently, and if meeting the requirements for continued escalation, Cohorts 7A and 7B will be enrolled and evaluated.
# Hematologic DLTs included Grade 4 anemia or thrombocytopenia, Grade 4 neutropenia greater than 5 days despite granulocyte colony-stimulating factor (G-CSF) and Grade 3 or higher febrile neutropenia.
# Dose escalation will continue until a DLT is observed. […] One key objective for the dose escalation portion of the study was to identify the maximum tolerated dose (MTD) and Optimal Biological Effect dose (OBE). The OBE was defined as: […]
# [8] = eleven patients from Expansion Cohort C, 750 mg QD
# [9] = 5/21 subjects, regardless of dose
# [10] = cohort 5, 750 mg QD, initial, through May 22, 2012
# [11] = cohorts 1-5 through May 22, 2012
compound,measurement,setting,value
C=CC(=O)Nc1cccc(Nc2nc(Nc3ccc(OCCOC)cc3)ncc2F)c1.O=S(=O)(O)c1ccccc1 [N-(3-(5-fluoro-2-(4-(2-methoxyethoxy)phenylamino)pyrimidin-4-ylamino)phenyl)acrylamide besylate],PK exposure (AUClast),"[1]; Day 1 to 15, once daily oral dosing",linear with no accumulation
same,PK,[1]; once daily oral dosing,predictable with no accumulation
same,progressive disease after,"[2]; cohort C, 750 mg po QD, one patient",73 days
same,patients showing no disease progression,"[2]; cohort C, 24 subjects, 750 mg po QD",twenty-three
same,CLL patients with between 25 and 50% reduction of lymph node size,[2]; [8],6/11
same,CLL patients with nodal response (>50% reduction of lymph node size),[2]; [8],1/11
same,CLL patients with early increases (≧25%) in absolute lymphocyte counts (ALC),"[2]; of eighteen (18) patients in Expansion Cohort C, 750 mg QD, first 28-day cycle",17 patients
same,solubility,"[3]; ethanol, organic solvent or mixture, read-out: solubility in ethanol",~10000 µg/mL
same,solubility,"[3]; water, read-out: solubility in water",~160 µg/mL
same,patients showing no DLT,[4],Twenty-four
same,DLT or disease progression,"[5]; cohort 1 (125 mg), three CLL subjects",None of the subjects showed DLT or disease progression
same,progressive disease after,"[5]; cohort 1 (starting 125 mg QD), three CLL patients, one value per patient, listed as API, besylate",187 days and 319 days and 332 days
same,progressive disease after,"[5]; cohort 2 (250 mg QD), DLBCL subject",28 days
same,subjects showing no DLT or disease progression,"[5]; cohort 2 (250 mg), three subjects",Two of the three
same,progressive disease after,"[5]; cohort 3 (400 mg QD), two CLL patients, one value per patient, listed as API, besylate",168 days and 231 days
same,patients showing no DLT or disease progression,"[5]; cohort 3 (400 mg), six subjects, one MZL, two CLL",Three
same,progressive disease after,"[5]; cohort 4 (625 mg QD), DLBCL patient",33 days
same,progressive disease after,"[5]; cohort 4 (625 mg QD), mantle cell lymphoma patient",105 days
same,progressive disease after,"[5]; cohort 4 (625 mg QD), two follicular lymphoma patients, one value per patient, listed as API, besylate",56 days and 212 days
same,patients showing no DLT or disease progression,"[5]; cohort 4 (625 mg), six subjects, follicular lymphoma",One
same,progressive disease after,"[5]; cohort 5 (750 mg QD), MLBCL patient",64 days
same,patients showing no DLT or disease progression,"[5]; cohort 5 (750 mg), six subjects",Five
same,patients showing no DLT or disease progression,"[5]; cohorts 6A and 6B (1000 mg QD / 375 mg BID), twelve subjects, as of Sep. 11, 2012",eleven
same,"environmental instabilities (i.e. heat, acid, base) that require special handling",[6],no environmental instabilities
same,treatment emergent AE: grade 1 or 2 headache,[7]; [9],23.8%
same,treatment emergent AE: thrombocytopenia,[7]; [9],23.8%
same,treatment emergent AE: grade 1 or 2 transient diarrhea,"[7]; 15/21 subjects, regardless of dose",71.4%
same,other DLTs,[7]; besides the follicular lymphoma patient in cohort 3,no other DLTs have occurred
same,serious adverse event not related to the study: disseminated Herpes zoster,[7]; cohort 1,1 patient
same,serious adverse event not related to the study: pneumonia,[7]; cohort 1,1 patient
same,incidence of abdominal distension,"[7]; cohort 1, 125 mg QD",1 patient
same,incidence of contusion (bruising),"[7]; cohort 1, 125 mg QD",2 patients
same,incidence of diarrhea,"[7]; cohort 1, 125 mg QD",3 patients
same,incidence of dyspepsia,"[7]; cohort 1, 125 mg QD",1 patient
same,incidence of dyspnea,"[7]; cohort 1, 125 mg QD",1 patient
same,incidence of fatigue,"[7]; cohort 1, 125 mg QD",2 patients
same,incidence of headache,"[7]; cohort 1, 125 mg QD",2 patients
same,incidence of jaw pain,"[7]; cohort 1, 125 mg QD",1 patient
same,incidence of lymph node pain,"[7]; cohort 1, 125 mg QD",2 patients
same,incidence of muscle spasm,"[7]; cohort 1, 125 mg QD",1 patient
same,incidence of nausea,"[7]; cohort 1, 125 mg QD",1 patient
same,incidence of pneumonia,"[7]; cohort 1, 125 mg QD",1 patient
same,incidence of rash,"[7]; cohort 1, 125 mg QD",1 patient
same,incidence of sinusitis,"[7]; cohort 1, 125 mg QD",1 patient
same,incidence of thrombocytopenia,"[7]; cohort 1, 125 mg QD",1 patient
same,incidence of upper respiratory infection,"[7]; cohort 1, 125 mg QD",2 patients
same,incidence of urticaria,"[7]; cohort 1, 125 mg QD",1 patient
same,incidence of weight loss,"[7]; cohort 1, 125 mg QD",1 patient
same,serious adverse event not related to the study: atrial fibrillation,[7]; cohort 2,1 patient
same,incidence of abdominal distension,"[7]; cohort 2, 250 mg QD",1 patient
same,incidence of cough,"[7]; cohort 2, 250 mg QD",1 patient
same,incidence of decreased diarrhea,"[7]; cohort 2, 250 mg QD",2 patients
same,incidence of dysgeusia,"[7]; cohort 2, 250 mg QD",1 patient
same,incidence of dyspnea,"[7]; cohort 2, 250 mg QD",1 patient
same,incidence of fatigue,"[7]; cohort 2, 250 mg QD",1 patient
same,incidence of nausea,"[7]; cohort 2, 250 mg QD",1 patient
same,incidence of neutropenia,"[7]; cohort 2, 250 mg QD",1 patient
same,incidence of pneumonia,"[7]; cohort 2, 250 mg QD",1 patient
same,incidence of weight loss,"[7]; cohort 2, 250 mg QD",1 patient
same,serious adverse event not related to the study: hematuria/urinary retention,[7]; cohort 3,1 patient
same,serious adverse event not related to the study: pneumonia/thrombocytopenia/ANC decreased,[7]; cohort 3,1 patient
same,dose limiting toxicity,"[7]; cohort 3 (400 mg QD), follicular lymphoma subject, first 28-day cycle",thrombocytopenia (low platelet count; Grade 4)
same,incidence of anemia,"[7]; cohort 3, 400 mg QD",1 patient
same,incidence of cough,"[7]; cohort 3, 400 mg QD",2 patients
same,incidence of diarrhea,"[7]; cohort 3, 400 mg QD",4 patients
same,incidence of fatigue,"[7]; cohort 3, 400 mg QD",1 patient
same,incidence of headache,"[7]; cohort 3, 400 mg QD",1 patient
same,incidence of influenza-like illness,"[7]; cohort 3, 400 mg QD",1 patient
same,incidence of insomnia,"[7]; cohort 3, 400 mg QD",1 patient
same,incidence of jaw pain,"[7]; cohort 3, 400 mg QD",1 patient
same,incidence of muscle spasm,"[7]; cohort 3, 400 mg QD",1 patient
same,incidence of neutropenia,"[7]; cohort 3, 400 mg QD",2 patients
same,incidence of pneumonia,"[7]; cohort 3, 400 mg QD",1 patient
same,incidence of rash,"[7]; cohort 3, 400 mg QD",1 patient
same,incidence of thrombocytopenia,"[7]; cohort 3, 400 mg QD",3 patients
same,incidence of upper respiratory infection,"[7]; cohort 3, 400 mg QD",2 patients
same,incidence of urinary retention,"[7]; cohort 3, 400 mg QD",1 patient
same,incidence of urticaria,"[7]; cohort 3, 400 mg QD",1 patient
same,serious adverse event not related to the study: tonsillar hypertrophy,[7]; cohort 4,1 patient
same,"neutropenia (adverse event) leading to discontinuation, after","[7]; cohort 4 (625 mg QD), CLL patient, after three cycles",85 days
same,incidence of abdominal pain,"[7]; cohort 4, 625 mg QD",2 patients
same,incidence of anemia,"[7]; cohort 4, 625 mg QD",1 patient
same,incidence of dehydration,"[7]; cohort 4, 625 mg QD",2 patients
same,incidence of diarrhea,"[7]; cohort 4, 625 mg QD",5 patients
same,incidence of dysgeusia,"[7]; cohort 4, 625 mg QD",2 patients
same,incidence of dyspepsia,"[7]; cohort 4, 625 mg QD",2 patients
same,incidence of eye pain,"[7]; cohort 4, 625 mg QD",2 patients
same,incidence of headache,"[7]; cohort 4, 625 mg QD",2 patients
same,incidence of influenza-like illness,"[7]; cohort 4, 625 mg QD",1 patient
same,incidence of insomnia,"[7]; cohort 4, 625 mg QD",1 patient
same,incidence of nausea,"[7]; cohort 4, 625 mg QD",2 patients
same,incidence of neutropenia,"[7]; cohort 4, 625 mg QD",1 patient
same,incidence of sinusitis,"[7]; cohort 4, 625 mg QD",1 patient
same,incidence of thrombocytopenia,"[7]; cohort 4, 625 mg QD",1 patient
same,incidence of urinary retention,"[7]; cohort 4, 625 mg QD",1 patient
same,incidence of abdominal pain,[7]; [10],1 patient
same,incidence of diarrhea,[7]; [10],1 patient
same,Grade 3-4 neutropenia,[7]; [11],3 patients
same,Grade 3-4 pneumonia,[7]; [11],2 patients
same,Grade 3-4 thrombocytopenia,[7]; [11],4 patients
same,maximum tolerated dose (MTD),[7],not yet been reached
same,maximum tolerated dose (MTD),[7]; listed as API,not been reached
same,severity of adverse events reported,"[7]; except for decreased ANC (neutropenia), pneumonia and thrombocytopenia",Grade 1 and 2
same,Grade 3/4 adverse event: neutropenia,"[7]; subjects/21, probably related",3/21
same,Grade 3/4 adverse event: pneumonia,"[7]; subjects/21, probably related",2/21
same,Grade 3/4 adverse event: thrombocytopenia,"[7]; subjects/21, probably related",4/21
